Results: ChEMBL document CHEMBL3351389, “Identification of novel inhibitors of phospho-MurNAc-pentapeptide translocase MraY from library screening: Isoquinoline alkaloid michellamine B and xanthene dye phloxine B” (Bioorg Med Chem, 2014)
Values after ≈ are worked out from the molar mass of the structure shown. Active and inactive are the calls of the source. The calls are words filed in the database; no cut-off is given here.

Columns and labels:
[1] = biological target: T1, Phospho-N-acetylmuramoyl-pentapeptide-transferase (Escherichia coli) (UniProt E2QF15); assay: Inhibition of recombinant MraY overexpressed in Escherichia coli membranes at 25 ug/ml by continuous fluorescence assay; assay type: cell membranes
T1 sequence (whole entry): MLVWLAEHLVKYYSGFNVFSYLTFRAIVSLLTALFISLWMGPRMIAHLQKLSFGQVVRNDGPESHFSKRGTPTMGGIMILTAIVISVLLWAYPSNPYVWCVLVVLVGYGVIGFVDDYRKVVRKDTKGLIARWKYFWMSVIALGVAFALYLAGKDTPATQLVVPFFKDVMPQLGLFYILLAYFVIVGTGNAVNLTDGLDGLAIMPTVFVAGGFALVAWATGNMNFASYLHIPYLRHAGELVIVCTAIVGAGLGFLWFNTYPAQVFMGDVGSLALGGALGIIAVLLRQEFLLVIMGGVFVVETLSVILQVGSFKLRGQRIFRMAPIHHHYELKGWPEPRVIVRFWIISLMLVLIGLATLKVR

[2] = biological target: T1, Phospho-N-acetylmuramoyl-pentapeptide-transferase (Escherichia coli); assay: Inhibition of recombinant MraY overexpressed in Escherichia coli membranes after 30 mins by radiochemical assay in presence of [14C-D-Ala]-UDPMurNAc-pentapeptide; assay type: cell membranes
Escherichia coli [3] = assay: Inhibition of recombinant Escherichia coli MurG at 500 ug/ml after 30 mins by radiochemical assay in presence of [3H]-UDPGlcNAc
Staphylococcus aureus = assay: Inhibition of MraY in Staphylococcus aureus membranes at 500 uM by continuous fluorescence assay; assay type: cell membranes
[4] = biological target: T1, Phospho-N-acetylmuramoyl-pentapeptide-transferase (Escherichia coli); assay: Inhibition of recombinant MraY overexpressed in Escherichia coli membranes at 500 uM after 30 mins by radiochemical assay in presence of [14C-D-Ala]-UDPMurNAc-pentapeptide; assay type: cell membranes
[5] = biological target: T2, Phospho-N-acetylmuramoyl-pentapeptide-transferase (Escherichia coli, UniProt E2QF15); assay: Inhibition of recombinant MraY overexpressed in Escherichia coli membranes by continuous fluorescence assay; assay type: cell membranes
T2 sequence (E2QF15 whole entry): T1 sequence (whole entry)

Escherichia coli [6] = assay: Antimicrobial activity against Escherichia coli DH5[alpha] at 1.95 to 125 ug/ml by liquid culture microtitre plate assay; assay type: functional, organism-based
Micrococcus flavus [7] = assay: Inhibition of MraY in Micrococcus flavus membranes at 500 uM by continuous fluorescence assay; assay type: cell membranes
[8] = Inhibition of MraY in Bacillus subtilis membranes by continuous fluorescence assay; assay type: cell membranes
Micrococcus flavus [9] = assay: Antimicrobial activity against Micrococcus flavus at 1.95 to 125 ug/ml by liquid culture microtitre plate assay; assay type: functional, organism-based
Bacillus subtilis = assay: Antimicrobial activity against Bacillus subtilis W23 by liquid culture microtitre plate assay; assay type: functional
Pseudomonas putida = assay: Antimicrobial activity against Pseudomonas putida ATCC 33015 at 1.95 to 125 ug/ml by liquid culture microtitre plate assay; assay type: functional, organism-based
Pseudomonas aeruginosa = assay: Inhibition of MraY in Pseudomonas aeruginosa membranes at 500 uM by continuous fluorescence assay; assay type: cell membranes
[10] = biological target: T1, Phospho-N-acetylmuramoyl-pentapeptide-transferase (Escherichia coli); assay: Inhibition of recombinant MraY overexpressed in Escherichia coli membranes at 100 uM after 30 mins by radiochemical assay in presence of [14C-D-Ala]-UDPMurNAc-pentapeptide; assay type: cell membranes
Escherichia coli [11] = assay: Inhibition of recombinant Escherichia coli MurG at 50 ug/ml after 30 mins by radiochemical assay in presence of [3H]-UDPGlcNAc
[12] = Inhibition of MraY in Micrococcus flavus membranes by continuous fluorescence assay; assay type: cell membranes
[13] = Inhibition of MraY in Staphylococcus aureus membranes by continuous fluorescence assay; assay type: cell membranes
[14] = Inhibition of MraY in Pseudomonas aeruginosa membranes by continuous fluorescence assay; assay type: cell membranes

Molecule: CC(=O)N[C@H]1[C@@H](O[C@@H]2O[C@H](CC(O)[C@H]3O[C@@H](n4ccc(=O)[nH]c4=O)[C@H](O)[C@@H]3O)[C@H](O)[C@H](O)[C@H]2NC(=O)/C=C/CC(C)C)O[C@H](CO)[C@@H](N)[C@@H]1O (stereo partly drawn)
- inhibition [1]: > 95%

Molecule: O=C(O)c1ccccc1-c1c2cc(Cl)c(=O)cc-2oc2cc(O)c(Cl)cc12
- inhibition [2]: inactive

Molecule: COc1cc(C)cc2c(-c3c(O)cc(O)c4c3C[C@@H](C)N[C@@H]4C)cc(-c3cc(-c4c(O)cc(O)c5c4C[C@@H](C)N[C@@H]5C)c4cc(C)cc(OC)c4c3O)c(O)c12 [MICHELLAMINE A]
- inhibition (Escherichia coli [3]): inactive
- inhibition (Staphylococcus aureus): 0%
- inhibition [4]: 60%
- IC50 [5]: 456 µM
- Activity (Escherichia coli [6]): inactive
- inhibition (Micrococcus flavus [7]): 14%
- IC50 [8]: 386 µM
- Activity (Micrococcus flavus [9]): inactive
- MIC (Bacillus subtilis): 16 µg/mL (≈ 21.1 µM)
- Activity (Pseudomonas putida): inactive
- inhibition (Pseudomonas aeruginosa): 38%
- inhibition [10]: 20%

Molecule: O=C(O)c1ccccc1-c1c2cc(Br)c(=O)cc-2oc2cc(O)c(Br)cc12
- inhibition [2]: inactive

Molecule: RAMOPLANIN
- inhibition (Escherichia coli [11]): > 80%

Molecule: O=C(O)c1c(Cl)c(Cl)c(Cl)c(Cl)c1-c1c2cc(Br)c(=O)c(Br)c-2oc2c(Br)c(O)c(Br)cc12
- inhibition (Escherichia coli [3]): inactive
- IC50 [5]: 32 µM
- IC50 [8]: 165 µM
- IC50 [12]: 195 µM
- IC50 [13]: 254 µM
- IC50 [14]: 128 µM
- inhibition [2]: Active
